Columns and labels:
[1] = system: A101D (Melanoma); test: combination Emax (second highest fraction inhibited in the dose matrix, 72 h); higher = more inhibition; extreme values may be limits of the assay
Summary of the method: (§1)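 Cell lines grown in DMEM/F12 or RPMI with 10% FBS were plated in 1536-well plates and held 24 hours at 37°C, 5% CO2 before 72 hours of exposure to two-drug dose matrices, with DMSO typically at 0.2%. CellTiter-Glo 2.0 luminescence gave viability, which was converted to inhibition. Vehicle wells were set to 0 and blank wells to 1. Combination Emax is the second-highest inhibition in the matrix, and Bliss excess is the observed combination effect minus the expected EA + EB − EA·EB, where EA and EB are the single-agent effects.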

[2] = system: ESO26 (Esophageal Adenocarcinoma); test: as above
Summary of the method: as §1

[3] = system: DMS-53 (Small Cell Lung Carcinoma); test: as above
Summary of the method: as §1

[4] = system: CA46 (Burkitt's Lymphoma); test: as above
Summary of the method: as §1

[5] = system: KYSE-140 (Esophageal Squamous Cell Carcinoma); test: as above
Summary of the method: as §1

[6] = system: CAL-27 (Oral Cavity Carcinoma); test: as above
Summary of the method: as §1

[7] = system: JVM-2 (B-Cell Non-Hodgkin's Lymphoma); test: as above
Summary of the method: as §1

[8] = system: COLO-792 (Melanoma); test: as above
Summary of the method: as §1

[9] = system: UACC-812 (Breast Carcinoma); test: as above
Summary of the method: as §1

[10] = system: NB13 (Neuroblastoma); test: as above
Summary of the method: as §1

[11] = system: G-402 (Other Solid Carcinomas); test: as above
Summary of the method: as §1

[12] = system: A253 (Head and Neck Carcinoma); test: as above
Summary of the method: as §1

[13] = system: Jurkat (T-Lymphoblastic Leukemia); test: as above
Summary of the method: as §1

[14] = system: A2780 (Ovarian Carcinoma); test: Bliss excess, mean over the matrix (fraction); higher = more synergy
Summary of the method: as §1

[15] = system: NCI-H2087 (Lung Adenocarcinoma); test: as above
Summary of the method: as §1

[16] = system: NCI-H1703 (Squamous Cell Lung Carcinoma); test: as above
Summary of the method: as §1

[17] = system: 769-P (Kidney Carcinoma); test: as above
Summary of the method: as §1

[18] = system: EW-7 (Ewing's Sarcoma); test: as above
Summary of the method: as §1

[19] = system: IM-9 (Non-Cancerous); test: as above
Summary of the method: as §1

[20] = system: CGTH-W-1 (Thyroid Gland Carcinoma); test: as above
Summary of the method: as §1
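Throughout, for Bliss excess, mean over the matrix: after 72 h of two-drug dosing.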

SMILES | combination Emax [1] | combination Emax [2] | combination Emax [3] | combination Emax [4] | combination Emax [5] | combination Emax [6] | combination Emax [7] | combination Emax [8] | combination Emax [9] | combination Emax [10] | combination Emax [11] | combination Emax [12] | combination Emax [13] | Bliss excess [14] | Bliss excess [15] | Bliss excess [16] | Bliss excess [17] | Bliss excess [18] | Bliss excess [19] | Bliss excess [20]
CN(CCO)CC[C@H](CSc1ccccc1)Nc1ccc(S(=O)(=O)NC(=O)c2ccc(N3CCC([C@@H](O)c4ccccc4-c4ccc(Cl)cc4)CC3)cc2)cc1S(=O)(=O)C(F)(F)F [AZD4320] + Cc1cc2ncnn2cc1Nc1ncc2c(n1)n(C1CCOCC1)c(=O)n2C [AZD7648] (first compound max 1 µM, 7x7, partner max 10 µM) | 0.452 | 0.0775 | 0.977 | 0.306 | 0.203 | 0.0955 | 0.642 | 0.9 | 0.15 | 1 | 0.475 | 0.149 | 0.655 | -0.0469 | -0.0145 | -0.0096 | -0.0572 | 0.0633 | 0.0473 | -0.0436
Cc1cc2ncnn2cc1Nc1ncc2c(n1)n(C1CCOCC1)c(=O)n2C [AZD7648] + CN(C)CCCOc1ccc(-c2ccc3ncc4c(c3c2)n(C2CCOCC2)c(=O)n4C)cn1 [AZD0156] (first compound max 10 µM, 7x7, partner max 1 µM) | 0.374 | 0 | 0.139 | 0.288 | 0.216 | 0.222 | 0.622 | 0.351 | 0.288 | 0.303 | 0.51 | 0.244 | 0.23 | -0.0148 | -0.0115 | -0.033 | -0.0086 | -0.03 | -0.0509 | 0.0015
Cc1cc2ncnn2cc1Nc1ncc2c(n1)n(C1CCOCC1)c(=O)n2C [AZD7648] + O=C(c1cc(Cc2n[nH]c(=O)c3ccccc23)ccc1F)N1CCN(C(=O)C2CC2)CC1 [Olaparib] (first compound max 10 µM, 7x7, partner max 10 µM) | 0.261 | 0.155 | 0.128 | 0.221 | 0.197 | 0.347 | 0.624 | 0.347 | 0.177 | 0.263 | 0.41 | 0.17 | 0.508 | -0.0213 | -0.0207 | -0.0307 | -0.024 | -0.0027 | -0.0144 | -0.0412
COc1cc2c(cc1OCCCCCOc1cc3c(cc1OC)C(=O)N1C=C(C)C[C@H]1C=N3)N=C[C@@H]1CC(C)=CN1C2=O [SG3199] + O=C(c1cc(Cc2n[nH]c(=O)c3ccccc23)ccc1F)N1CCN(C(=O)C2CC2)CC1 [Olaparib] (first compound max 0.001 µM, 7x7, partner max 10 µM) | 0.214 | 0.272 | 0.153 | 0.157 | 0.0926 | 0.288 | 0.466 | 0.109 | 0.134 | 0.213 | 0.364 | 0.0649 | 0.356 | -0.0404 | -0.0224 | -0.0451 | -0.0643 | -0.0341 | -0.0059 | -0.0332
CN(CCO)CC[C@H](CSc1ccccc1)Nc1ccc(S(=O)(=O)NC(=O)c2ccc(N3CCC([C@@H](O)c4ccccc4-c4ccc(Cl)cc4)CC3)cc2)cc1S(=O)(=O)C(F)(F)F [AZD4320] + C1CN(CCC1(C(=O)N[C@@H](CCO)C2=CC=C(C=C2)Cl)N)C3=NC=NC4=C3C=CN4 [Capivasertib] (first compound max 1 µM, 7x7, partner max 3 µM) | 0.429 | 0.345 | 0.965 | 0.251 | 0.664 | 0.191 | 0.702 | 0.78 | 0.226 | 1 | 0.327 | 0.499 | 0.883 | -0.0734 | -0.0696 | 0.0251 | -0.0478 | 0.0586 | -0.0399 | -0.0436
C[C@@H](c1ccc2nccn2c1)n1nnc2ncc(-c3cnn(C)c3)nc21 [Savolitinib] + CC1(C)CCC(CN2CCN(c3ccc(C(=O)NS(=O)(=O)c4ccc(NCC5CCOCC5)c([N+](=O)[O-])c4)c(Oc4cnc5[nH]ccc5c4)c3)CC2)=C(c2ccc(Cl)cc2)C1 [Venetoclax] (first compound max 1 µM, 7x7, partner max 1 µM) | 0.2 | 0.0719 | 0.395 | 0.0492 | 0.305 | 0.0502 | 0.141 | 0.27 | 0.105 | 0.152 | 0.131 | 0.092 | 0.188 | -0.0843 | -0.0716 | -0.015 | -0.0419 | -0.0242 | 0.0452 | -0.0378

Source: the supplement of paper PMC11061612
